Test results from US10604555B2, “GIP derivatives and uses thereof” (priority 2018, dated 2020).
*1 amine or outer side, *2 acyl side, *3 side chain or, on linkers, in order; H or OH if unused. Where a SMILES comes first, the peptide text is derived from it. Where no end group is shown, it is not given here. Side-chain parts run from the residue outwards. [ ]: non-standard residue; d: D form. The star is where a group is joined. X1 = O=C(O)CCCCCCCCCCCCCCCCCCC(=O)NCC1CCC(C(=O)*)CC1; C18 diacid = O=C(O)CCCCCCCCCCCCCCCCC(=O)*; γGlu = O=C(O)[C@H](CCC(=O)[*:2])N[*:1]; Nle = CCCC[C@H](N)C(=O)O; AEEA = NCCOCCOCC(=O)O; Aib = CC(C)(N)C(=O)O

What was measured:
Type in all cases: physicochemical
[1] = Dynamic Light Scattering Stability Index (DLS-SI); conditions: 250 μM, pH 7.4, 4 weeks at 25° C.
[2] = Chemical stability: HMWP formation by SEC-MS; conditions: 37° C., 4 weeks, 250 μM, pH 7.4
Experimental: The aim of this study is to determine the chemical stability of GIP derivative compositions. As a measure of stability of the GIP derivative composition, the formation of high molecular weight peptide formation (% HMWP) as a function of time was analysed by size-exclusion chromatography (SEC-MS). Further, the purity loss of the GIP derivative compositions was measured by LCMS. Samples for chemical stability assays were freshly prepared before each assay. […] The pH of the sample was adjusted to the desired value using appropriate amounts of concentrated NaOH and HCl. […] Formation of covalent oligomers (HMWPs) was analysed and identified by a SEC-MS method. […] The LC system was coupled to both a TUV detector operated at 215 nm, 10 Hz and a high resolution QToF mass spectrometer from Waters (Synapt G2S) operated in positive ion mode and m/z range of 100 to 4000 with normal resolution setting. Lock mass correction against Leu-Enkephalin was done every 31 sec. Spectra were processed in MassLynx version 4.1 and MaxEnt deconvoluted.

[3] = Chemical stability: purity loss by LCMS; conditions: 37° C., 4 weeks, 250 μM, pH 7.4
Experimental: The aim of this study is to determine the chemical stability of GIP derivative compositions. As a measure of stability of the GIP derivative composition, the formation of high molecular weight peptide formation (% HMWP) as a function of time was analysed by size-exclusion chromatography (SEC-MS). Further, the purity loss of the GIP derivative compositions was measured by LCMS. Samples for chemical stability assays were freshly prepared before each assay. […] The pH of the sample was adjusted to the desired value using appropriate amounts of concentrated NaOH and HCl. […] The column oven was kept at 55° C. […] The solvents were pumped from a binary solvent manager system and mixed on the high pressure side in a mixer with a volume of 50 μl. The gradient and flow can be seen in table 4: [table] A Flow-through-needle auto sampler at 8° C. was used to inject 1 μl of each sample. The effluent passed through a tunable UV detector (TUV) tuned to 215 nm. The outlet from the UV detector passed to the electrospray source of the mass spectrometer. The capillary was held at 3 kV and dry nitrogen gas was purged at a flow of 750 I/h and a temperature of 250° C. The source block was kept at 120° C. and the large bore cone was flushed with nitrogen at 50 I/h with standard electrode potentials on the rest of the instrument. The MS was operated in high resolution mode with a nominal resolution of 35000. The ToF analyser was operated in ADC mode with an m/z window from 100-2000.

[4] = ThT fibrillation assay (physical stability); conditions: 250 μM, pH 7.4, 37° C., 45 hours of incubation
Experimental: The Thioflavin T assay was performed as outlined in Schlein (2017), AAPS J, 19(2), 397-408.
This has traditionally been measured by visual inspection of the sample. However, that kind of measurement is very cumbersome and depending on the observer. Therefore, the application of a small molecule indicator probe is much more advantageous. Thioflavin T (ThT) is such a probe and has a distinct fluorescence signature when binding to fibrils [Naiki et al. (1989) Anal. Biochem. 177, 244-249; LeVine (1999) Methods. Enzymol. 309, 274-284].
The time course for fibril formation can be described by a sigmoidal curve with the following expression [Nielsen et al. (2001) Biochemistry 40, 6036-6046]:
Here, F is the ThT fluorescence at the time t. The constant t0 is the time needed to reach 50% of maximum fluorescence. The two important parameters describing fibril formation are the lag-time calculated by t0−2τ and the apparent rate constant kapp 1/τ.
Few of those intermediates nucleate to form a template onto which further intermediates may assembly and the fibrillation proceeds. The lag-time corresponds to the interval in which the critical mass of nucleus is built up and the apparent rate constant is the rate with which the fibril itself is formed.
Samples are prepared freshly before each assay. The drug substance was solved with 250 μM of the GIP derivative in 8 mM phosphate, 14 mg/mL propylene glycol, 58 mM phenol, pH 7.4. The pH of the sample was adjusted to the desired value using appropriate amounts of concentrated NaOH and HCl. Thioflavin T was added to the samples from a stock solution in H2O to a final concentration of 1 μM.
Sample aliquots of 200 μl were placed in each well of a 96 well microtiter plate (Packard OptiPlate™-96, white polystyrene). Four replica of each sample (corresponding to one test condition) was placed in one column of wells. The plate was sealed with Scotch Pad (Qiagen).
Incubation, shaking and measurement of the ThT fluorescence emission were done in a Fluoroskan Ascent FL fluorescence platereader (Thermo Labsystems). […] Fluorescence measurement was done using excitation through a 444 nm filter and measurement of emission through a 485 nm filter.
Each run was initiated by incubating the plate at the assay temperature for 10 min. The plate was measured every 20 minutes for a desired period of time. Between each measurement, the plate was shaken and heated as described.
After completion of the ThT assay the replica of each sample was pooled and centrifuged at 20000 rpm for 30 minutes at 18° C. The supernatant was filtered through a 0.22 μm filter and an aliquot was transferred to a HPLC vial. The concentration of the filtered sample relative to the initial sample (in percentage) was reported as the recovery.
The measurement points were saved in Microsoft Excel format for further processing and curve drawing and fitting was performed using GraphPad Prism. […] The data points were a mean of the four replica and shown with standard deviation error bars. Only data obtained in the same experiment (i.e. samples on the same plate) were presented in the same graph ensuring a relative measure of fibrillation between experiments.
The data set may be fitted to Eq. (1).

Compound | DLS-SI Dimensionless [1] | DLS-SI precipitates [1] | HMWP formation (%/month) [2] | Purity loss (%/month) [3] | ThT Assay Lag time [4]
CCCC[C@H](NC(=O)[C@H](C)NC(=O)[C@@H](NC(=O)[C@H](CO)NC(=O)[C@H](Cc1ccc(O)cc1)NC(=O)[C@H](CC(=O)O)NC(=O)[C@H](CO)NC(=O)[C@@H](NC(=O)[C@H](Cc1ccccc1)NC(=O)[C@@H](NC(=O)CNC(=O)[C@H](CCC(=O)O)NC(=O)C(C)(C)NC(=O)[C@@H](N)Cc1ccc(O)cc1)[C@@H](C)O)[C@@H](C)CC)[C@@H](C)CC)C(=O)N[C@@H](CC(=O)O)C(=O)N[C@@H](CCCCN)C(=O)N[C@H](C(=O)N[C@@H](CCCNC(=N)N)C(=O)N[C@@H](CCC(N)=O)C(=O)N[C@@H](CCC(=O)O)C(=O)N[C@@H](CC(=O)O)C(=O)N[C@@H](Cc1ccccc1)C(=O)N[C@H](C(=O)N[C@@H](CCCCNC(=O)CC[C@H](NC(=O)CC[C@H](NC(=O)CC[C@H](NC(=O)C1CCC(CNC(=O)CCCCCCCCCCCCCCCCCCC(=O)O)CC1)C(=O)O)C(=O)O)C(=O)O)C(=O)N[C@@H](Cc1c[nH]c2ccccc12)C(=O)N[C@@H](CC(C)C)C(=O)N[C@@H](CC(C)C)C(=O)N[C@@H](C)C(=O)N[C@@H](CCC(N)=O)C(=O)N[C@@H](CCCCN)C(=O)NCC(=O)O)C(C)C)[C@@H](C)CC (stereo partly drawn) [Compound 10, N{Epsilon-24}-[(4S)-4-carboxy-4-[[(4S)-4-carboxy-4-[[(4S)-4-carboxy-4-[[4-[(19-carboxynonadecanoylamino)methyl]cyclohexanecarbonyl]amino]butanoyl]amino]-butanoyl]amino]butanoyl]-[Aib2,Nle14,Arg18,Glu20,Lys24]-hGIP(1-31)] (H-Y[Aib]EGTFISDYSIA[Nle]DKIRQEDFVK([γGlu-γGlu-γGlu-X1])WLLAQKG-OH; N-terminus and C-terminus assumed) | 1.7 | No | 1.50 %/month | 4.80 %/month | >45 h
CCCC[C@H](NC(=O)[C@H](C)NC(=O)[C@@H](NC(=O)[C@H](CO)NC(=O)[C@H](Cc1ccc(O)cc1)NC(=O)[C@H](CC(=O)O)NC(=O)[C@H](CO)NC(=O)[C@@H](NC(=O)[C@H](Cc1ccccc1)NC(=O)[C@@H](NC(=O)CNC(=O)[C@H](CCC(=O)O)NC(=O)C(C)(C)NC(=O)[C@@H](Cc1ccc(O)cc1)NC(C)=O)[C@@H](C)O)[C@@H](C)CC)[C@@H](C)CC)C(=O)N[C@@H](CC(=O)O)C(=O)N[C@@H](CCCCN)C(=O)N[C@H](C(=O)N[C@@H](Cc1c[nH]cn1)C(=O)N[C@@H](CCC(N)=O)C(=O)N[C@@H](CCC(N)=O)C(=O)N[C@@H](CC(=O)O)C(=O)N[C@@H](Cc1ccccc1)C(=O)N[C@H](C(=O)N[C@@H](CCCCNC(=O)CC[C@H](NC(=O)CC[C@H](NC(=O)CC[C@H](NC(=O)C1CCC(CNC(=O)CCCCCCCCCCCCCCCCCCC(=O)O)CC1)C(=O)O)C(=O)O)C(=O)O)C(=O)N[C@@H](Cc1c[nH]c2ccccc12)C(=O)N[C@@H](CC(C)C)C(=O)N[C@@H](CC(C)C)C(=O)N[C@@H](C)C(=O)N[C@@H](CCC(N)=O)C(=O)N[C@@H](CCCCN)C(=O)N1CCC[C@H]1C(N)=O)C(C)C)[C@@H](C)CC (stereo partly drawn) [Compound 32, N{1}-acetyl,N{Epsilon-24}-[(4S)-4-carboxy-4-[[(4S)-4-carboxy-4-[[(4S)-4-carboxy-4-[[4-[(19-carboxynonadecanoylamino)methyl]cyclohexanecarbonyl]amino]butanoyl]-amino]butanoyl]amino]butanoyl]-[D-Tyr1,Aib2,Nle14,Lys24,Pro31]-hGIP(1-31) amide] (Ac-[dY][Aib]EGTFISDYSIA[Nle]DKIHQQDFVK([γGlu-γGlu-γGlu-X1])WLLAQKP-NH2) | 1.7 | No | 0.66 %/month | 2.80 %/month | >45 h
Y[Aib]EGTFISDYSIALDKIHQQDFVK([AEEA-AEEA-γGlu-C18 diacid])WLLAQKGKKNDWKHNITQ [Compound 45, N{Epsilon-24}-[2-[2-[2-[[2-[2-[2-[[(4S)-4-carboxy-4-(17-carboxyheptadecanoylamino)butanoyl]amino]ethoxy]ethoxy]acetyl]amino]ethoxy]ethoxy]acetyl]-[Aib2,Leu14,Lys24]-hGIP] | 6.7 | No | 8.17 %/month | 47.22 %/month | >45 h
